{"source": "ChEMBL document CHEMBL1201862", "about": "“PubChem BioAssay data set” (2004)", "key": {"SUMO-activating enzyme": {"target": "SUMO-activating enzyme (Homo sapiens, UniProt Q9UBT2)", "test": "blockers of UBC9-mediated SUMO conjugation – biochemical, AlphaScreen, SUMOylation inhibitor project, confirmation (AID 2018)", "type": "functional"}, "SUMO E1/E2": {"target": "SUMO E1/E2 (Homo sapiens, UniProt P63279+Q9UBE0+Q9UBT2)", "test": "SAR analysis of SUMOylation using HTRF in an in-Vitro dose response assay. [Related pubchem assays (depositor defined):AID2006, AID2011, AID2018, AID2069, AID2658]", "type": "functional"}, "[1]": {"target": "Voltage-dependent T-type calcium channel subunit alpha-1H (Homo sapiens, UniProt O95180)", "sequence (O95180 whole entry)": "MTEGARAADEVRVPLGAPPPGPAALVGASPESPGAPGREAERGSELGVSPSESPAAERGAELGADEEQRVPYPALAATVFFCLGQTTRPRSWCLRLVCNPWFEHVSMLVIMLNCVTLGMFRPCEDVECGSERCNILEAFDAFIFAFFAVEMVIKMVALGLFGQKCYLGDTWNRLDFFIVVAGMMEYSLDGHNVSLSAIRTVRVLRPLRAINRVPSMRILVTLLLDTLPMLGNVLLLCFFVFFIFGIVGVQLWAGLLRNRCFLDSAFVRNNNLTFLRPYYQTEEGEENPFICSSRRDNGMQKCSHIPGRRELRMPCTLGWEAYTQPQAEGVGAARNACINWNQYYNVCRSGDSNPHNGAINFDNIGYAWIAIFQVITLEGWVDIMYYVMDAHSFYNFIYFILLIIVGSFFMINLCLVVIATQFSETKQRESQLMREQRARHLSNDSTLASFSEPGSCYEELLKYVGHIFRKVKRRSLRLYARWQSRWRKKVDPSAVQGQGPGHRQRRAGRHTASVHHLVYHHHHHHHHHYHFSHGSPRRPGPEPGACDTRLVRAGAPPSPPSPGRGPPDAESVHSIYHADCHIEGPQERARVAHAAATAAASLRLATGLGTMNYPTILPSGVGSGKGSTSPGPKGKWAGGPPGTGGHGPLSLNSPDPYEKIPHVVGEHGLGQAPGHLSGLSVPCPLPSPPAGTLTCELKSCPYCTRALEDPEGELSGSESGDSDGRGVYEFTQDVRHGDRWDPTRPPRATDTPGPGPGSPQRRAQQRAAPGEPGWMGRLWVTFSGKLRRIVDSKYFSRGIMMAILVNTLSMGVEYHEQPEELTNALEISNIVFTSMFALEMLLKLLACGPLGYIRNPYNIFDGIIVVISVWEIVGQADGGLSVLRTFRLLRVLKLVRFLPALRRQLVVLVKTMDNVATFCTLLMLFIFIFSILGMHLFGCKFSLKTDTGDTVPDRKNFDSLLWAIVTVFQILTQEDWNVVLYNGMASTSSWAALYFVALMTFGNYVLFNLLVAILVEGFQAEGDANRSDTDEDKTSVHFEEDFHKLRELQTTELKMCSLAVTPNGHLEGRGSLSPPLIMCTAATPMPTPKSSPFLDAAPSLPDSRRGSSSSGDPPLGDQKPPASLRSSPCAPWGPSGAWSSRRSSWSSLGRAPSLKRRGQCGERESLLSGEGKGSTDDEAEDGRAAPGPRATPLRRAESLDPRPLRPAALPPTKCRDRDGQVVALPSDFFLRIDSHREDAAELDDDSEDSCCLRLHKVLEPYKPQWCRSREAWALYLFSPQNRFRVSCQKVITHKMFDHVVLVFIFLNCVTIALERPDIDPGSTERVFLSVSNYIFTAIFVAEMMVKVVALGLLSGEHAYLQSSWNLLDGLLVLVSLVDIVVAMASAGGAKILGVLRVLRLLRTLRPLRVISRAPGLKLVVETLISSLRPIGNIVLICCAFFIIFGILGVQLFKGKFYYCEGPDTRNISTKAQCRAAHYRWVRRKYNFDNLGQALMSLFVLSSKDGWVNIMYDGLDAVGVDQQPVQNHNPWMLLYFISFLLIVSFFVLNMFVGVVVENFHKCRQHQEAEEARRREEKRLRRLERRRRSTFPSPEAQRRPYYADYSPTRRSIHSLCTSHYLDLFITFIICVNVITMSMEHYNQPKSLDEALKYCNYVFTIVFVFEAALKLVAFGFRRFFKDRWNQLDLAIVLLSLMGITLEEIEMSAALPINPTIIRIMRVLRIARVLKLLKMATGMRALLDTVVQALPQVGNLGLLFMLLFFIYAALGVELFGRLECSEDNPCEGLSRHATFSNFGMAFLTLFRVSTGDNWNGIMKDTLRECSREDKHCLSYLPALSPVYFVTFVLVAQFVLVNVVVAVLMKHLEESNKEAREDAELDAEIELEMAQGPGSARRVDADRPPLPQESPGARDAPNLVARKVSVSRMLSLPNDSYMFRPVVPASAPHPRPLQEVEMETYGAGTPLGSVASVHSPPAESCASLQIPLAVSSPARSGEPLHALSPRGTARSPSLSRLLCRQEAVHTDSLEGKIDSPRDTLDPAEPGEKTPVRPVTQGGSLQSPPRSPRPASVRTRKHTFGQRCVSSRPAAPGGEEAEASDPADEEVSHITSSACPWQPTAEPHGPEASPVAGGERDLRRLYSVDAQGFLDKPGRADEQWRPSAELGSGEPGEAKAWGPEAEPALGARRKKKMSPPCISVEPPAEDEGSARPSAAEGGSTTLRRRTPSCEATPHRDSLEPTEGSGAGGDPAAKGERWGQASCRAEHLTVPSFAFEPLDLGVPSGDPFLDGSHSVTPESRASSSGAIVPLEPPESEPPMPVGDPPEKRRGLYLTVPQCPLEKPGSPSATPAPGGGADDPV", "type": "functional"}, "Insulin-degrading enzyme": {"target": "T1, Insulin-degrading enzyme (Homo sapiens, UniProt P14735)", "T1 sequence (P14735 whole entry)": "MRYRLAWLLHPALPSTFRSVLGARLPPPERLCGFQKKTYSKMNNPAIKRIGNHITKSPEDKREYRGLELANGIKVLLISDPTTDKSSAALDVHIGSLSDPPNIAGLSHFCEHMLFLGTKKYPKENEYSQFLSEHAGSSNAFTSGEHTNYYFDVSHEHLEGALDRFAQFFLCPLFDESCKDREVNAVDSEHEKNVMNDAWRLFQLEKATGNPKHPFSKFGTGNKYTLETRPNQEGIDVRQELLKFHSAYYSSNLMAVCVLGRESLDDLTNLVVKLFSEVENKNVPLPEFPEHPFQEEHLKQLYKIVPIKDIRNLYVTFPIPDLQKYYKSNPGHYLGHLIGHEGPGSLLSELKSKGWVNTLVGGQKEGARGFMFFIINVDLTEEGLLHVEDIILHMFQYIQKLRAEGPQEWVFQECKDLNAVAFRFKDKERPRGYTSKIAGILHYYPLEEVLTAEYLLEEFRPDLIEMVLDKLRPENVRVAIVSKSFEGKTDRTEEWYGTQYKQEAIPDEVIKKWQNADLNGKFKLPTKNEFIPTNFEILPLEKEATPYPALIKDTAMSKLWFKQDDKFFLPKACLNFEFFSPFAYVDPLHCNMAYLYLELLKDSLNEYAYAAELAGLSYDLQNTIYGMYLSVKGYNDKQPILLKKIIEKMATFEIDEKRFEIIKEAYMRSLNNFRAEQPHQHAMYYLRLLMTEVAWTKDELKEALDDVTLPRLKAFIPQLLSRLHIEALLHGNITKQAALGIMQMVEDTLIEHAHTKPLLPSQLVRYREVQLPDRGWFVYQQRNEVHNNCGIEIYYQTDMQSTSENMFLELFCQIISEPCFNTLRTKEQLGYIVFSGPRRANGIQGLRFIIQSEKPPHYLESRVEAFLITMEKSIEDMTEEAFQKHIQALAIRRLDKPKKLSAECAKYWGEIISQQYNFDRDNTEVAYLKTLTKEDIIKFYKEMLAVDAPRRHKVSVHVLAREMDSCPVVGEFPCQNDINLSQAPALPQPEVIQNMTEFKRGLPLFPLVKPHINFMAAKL", "test": "cellular IDE activation of Abeta substrate cleavage – fluorescence polarization, HEK cells, dose response (AID 588439)", "type": "functional, cell-based"}, "[2]": {"target": "Dual specificity protein phosphatase 3 (Homo sapiens, UniProt P51452)", "sequence (P51452 whole entry)": "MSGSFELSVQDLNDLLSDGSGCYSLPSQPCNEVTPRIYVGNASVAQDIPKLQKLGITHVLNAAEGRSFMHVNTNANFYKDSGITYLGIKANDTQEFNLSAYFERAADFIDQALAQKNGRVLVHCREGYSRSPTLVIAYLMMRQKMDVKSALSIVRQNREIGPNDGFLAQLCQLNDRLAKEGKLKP", "test": "SAR VHR1 Fluorescent Assay for In Vitro dose response studies. [Related pubchem assays (depositor defined):AID1654, AID1661, AID1878, AID1992, AID2004, AID2070, AID2085]", "type": "functional"}, "[3]": {"target": "DNA (cytosine-5)-methyltransferase 1 (Homo sapiens, UniProt P26358)", "sequence (P26358 whole entry)": "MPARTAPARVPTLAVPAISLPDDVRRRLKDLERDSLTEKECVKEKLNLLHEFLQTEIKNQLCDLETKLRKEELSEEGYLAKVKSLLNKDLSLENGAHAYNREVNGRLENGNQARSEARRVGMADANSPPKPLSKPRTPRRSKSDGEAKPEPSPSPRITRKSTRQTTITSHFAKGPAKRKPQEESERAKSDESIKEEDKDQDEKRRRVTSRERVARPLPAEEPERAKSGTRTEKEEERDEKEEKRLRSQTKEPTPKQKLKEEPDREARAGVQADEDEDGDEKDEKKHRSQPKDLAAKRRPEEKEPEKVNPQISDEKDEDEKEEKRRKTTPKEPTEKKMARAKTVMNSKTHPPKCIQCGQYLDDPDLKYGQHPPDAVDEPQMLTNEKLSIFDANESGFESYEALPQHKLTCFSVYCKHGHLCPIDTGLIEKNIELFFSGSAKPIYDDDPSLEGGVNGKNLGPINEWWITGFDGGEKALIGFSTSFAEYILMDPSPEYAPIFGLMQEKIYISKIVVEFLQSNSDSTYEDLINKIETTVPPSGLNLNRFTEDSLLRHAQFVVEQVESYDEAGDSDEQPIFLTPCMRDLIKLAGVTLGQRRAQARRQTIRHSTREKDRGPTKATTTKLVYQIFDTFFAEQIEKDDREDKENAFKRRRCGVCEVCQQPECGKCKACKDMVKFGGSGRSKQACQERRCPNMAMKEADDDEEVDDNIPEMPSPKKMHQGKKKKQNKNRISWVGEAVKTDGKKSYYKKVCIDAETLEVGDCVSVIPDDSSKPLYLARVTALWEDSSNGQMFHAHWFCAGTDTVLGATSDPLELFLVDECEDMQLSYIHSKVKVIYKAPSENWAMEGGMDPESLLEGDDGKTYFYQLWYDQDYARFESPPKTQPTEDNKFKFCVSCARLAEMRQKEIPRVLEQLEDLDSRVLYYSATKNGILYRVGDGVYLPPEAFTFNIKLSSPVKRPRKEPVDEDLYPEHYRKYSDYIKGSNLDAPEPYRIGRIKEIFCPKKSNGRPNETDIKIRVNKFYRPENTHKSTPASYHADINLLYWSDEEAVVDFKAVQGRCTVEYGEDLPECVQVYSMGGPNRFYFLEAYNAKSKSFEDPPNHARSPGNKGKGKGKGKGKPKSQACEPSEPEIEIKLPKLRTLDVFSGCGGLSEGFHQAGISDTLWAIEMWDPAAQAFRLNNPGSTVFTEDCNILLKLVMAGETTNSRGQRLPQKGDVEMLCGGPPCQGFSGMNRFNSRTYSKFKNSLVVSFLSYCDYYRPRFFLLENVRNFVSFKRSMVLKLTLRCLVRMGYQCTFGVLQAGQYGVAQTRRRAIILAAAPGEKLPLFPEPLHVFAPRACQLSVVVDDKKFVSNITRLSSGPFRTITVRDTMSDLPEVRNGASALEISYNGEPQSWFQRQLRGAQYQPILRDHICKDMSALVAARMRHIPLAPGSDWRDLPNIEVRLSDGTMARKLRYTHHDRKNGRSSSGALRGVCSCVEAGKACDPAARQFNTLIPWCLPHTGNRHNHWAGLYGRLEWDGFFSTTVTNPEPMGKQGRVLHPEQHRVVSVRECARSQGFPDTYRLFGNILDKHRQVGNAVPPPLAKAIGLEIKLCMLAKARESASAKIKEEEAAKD", "test": "inhibition of DNA methylation by DNMT1 – biochemical, fluorescent molecular beacon, confirmation (AID 602386)", "type": "functional"}, "[4]": {"target": "T2, Tyrosine-protein phosphatase non-receptor type 11 (Homo sapiens, UniProt Q06124)", "T2 sequence (Q06124 whole entry)": "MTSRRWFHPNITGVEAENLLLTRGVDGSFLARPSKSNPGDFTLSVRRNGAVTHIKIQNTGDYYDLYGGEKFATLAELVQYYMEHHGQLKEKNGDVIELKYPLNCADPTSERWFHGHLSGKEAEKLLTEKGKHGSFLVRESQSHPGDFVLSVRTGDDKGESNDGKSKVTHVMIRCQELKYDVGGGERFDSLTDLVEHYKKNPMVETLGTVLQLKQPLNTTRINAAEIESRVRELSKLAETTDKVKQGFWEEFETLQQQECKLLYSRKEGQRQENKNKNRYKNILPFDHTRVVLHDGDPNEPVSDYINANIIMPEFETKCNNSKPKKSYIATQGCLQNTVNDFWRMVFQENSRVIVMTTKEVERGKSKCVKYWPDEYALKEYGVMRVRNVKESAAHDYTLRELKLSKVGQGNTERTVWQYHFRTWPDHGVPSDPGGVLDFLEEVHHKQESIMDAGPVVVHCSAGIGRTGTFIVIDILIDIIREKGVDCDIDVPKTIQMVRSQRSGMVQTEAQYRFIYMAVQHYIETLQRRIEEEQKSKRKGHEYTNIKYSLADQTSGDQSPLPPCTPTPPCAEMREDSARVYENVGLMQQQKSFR", "test": "PTPN11 enzyme inhibitors – biochemical, selectivity assay for STEP inhibitor project, dose response (AID 602367)", "type": "functional", "conditions": "read-out: IC50_Mean"}, "Prothrombin": {"target": "Prothrombin (Bos taurus, UniProt P00735)", "test": "thrombin protease inhibitors – biochemical, fluorescence polarization, uHTS hits, dose response (AID 602369)", "type": "functional"}}, "note": "Activity calls are given as the source filed them. For most assays here, no stated cut-off is given here; in the data, actives have a measured IC50 and inactives only a lower limit.", "data": [{"smiles": "C=CCn1c(NC(=O)c2ccccc2Cl)c(C#N)c2nc3ccccc3nc21", "values": [{"measurement": "IC50", "setting": "SUMO-activating enzyme", "result": "0.86 µM (active)"}, {"measurement": "IC50", "setting": "SUMO E1/E2", "result": "15.7 µM (active)"}, {"measurement": "EC50", "setting": "[1]", "result": "4.23 µM (active)"}]}, {"smiles": "O=c1oc2c(O)cccc2cc1-c1nc2ccccc2[nH]1", "values": [{"measurement": "EC50", "setting": "Insulin-degrading enzyme", "result": "> 54.7 µM (inactive)"}]}, {"smiles": "CCOC(=O)c1sc2nc3c(SCC(=O)O)cc(C(=O)c4ccccc4O)cn3c(=O)c2c1C", "values": [{"measurement": "IC50", "setting": "[2]", "result": "0.382 µM (active)"}, {"measurement": "IC50", "setting": "[3]", "result": "4.12 µM (active)"}, {"measurement": "IC50", "setting": "[4]", "result": "1.08 µM (active)"}, {"measurement": "IC50", "setting": "Prothrombin", "result": "56.6 µM (active)"}]}]}
